Consider 25 compounds from patent US20220226337A1 (Gilead Sciences, Inc., priority 2018, published 2022).

The assay deals with T1, α4β7 integrin interaction with MadCAM-1 (RPMI8866 cells) (Homo sapiens, UniProt P13612+P26010).
T1 construct: α4β7 integrin expressing cells; endogenous in cells; host or cells: RPMI8866 cells
T1 sequence (P13612 34-1032): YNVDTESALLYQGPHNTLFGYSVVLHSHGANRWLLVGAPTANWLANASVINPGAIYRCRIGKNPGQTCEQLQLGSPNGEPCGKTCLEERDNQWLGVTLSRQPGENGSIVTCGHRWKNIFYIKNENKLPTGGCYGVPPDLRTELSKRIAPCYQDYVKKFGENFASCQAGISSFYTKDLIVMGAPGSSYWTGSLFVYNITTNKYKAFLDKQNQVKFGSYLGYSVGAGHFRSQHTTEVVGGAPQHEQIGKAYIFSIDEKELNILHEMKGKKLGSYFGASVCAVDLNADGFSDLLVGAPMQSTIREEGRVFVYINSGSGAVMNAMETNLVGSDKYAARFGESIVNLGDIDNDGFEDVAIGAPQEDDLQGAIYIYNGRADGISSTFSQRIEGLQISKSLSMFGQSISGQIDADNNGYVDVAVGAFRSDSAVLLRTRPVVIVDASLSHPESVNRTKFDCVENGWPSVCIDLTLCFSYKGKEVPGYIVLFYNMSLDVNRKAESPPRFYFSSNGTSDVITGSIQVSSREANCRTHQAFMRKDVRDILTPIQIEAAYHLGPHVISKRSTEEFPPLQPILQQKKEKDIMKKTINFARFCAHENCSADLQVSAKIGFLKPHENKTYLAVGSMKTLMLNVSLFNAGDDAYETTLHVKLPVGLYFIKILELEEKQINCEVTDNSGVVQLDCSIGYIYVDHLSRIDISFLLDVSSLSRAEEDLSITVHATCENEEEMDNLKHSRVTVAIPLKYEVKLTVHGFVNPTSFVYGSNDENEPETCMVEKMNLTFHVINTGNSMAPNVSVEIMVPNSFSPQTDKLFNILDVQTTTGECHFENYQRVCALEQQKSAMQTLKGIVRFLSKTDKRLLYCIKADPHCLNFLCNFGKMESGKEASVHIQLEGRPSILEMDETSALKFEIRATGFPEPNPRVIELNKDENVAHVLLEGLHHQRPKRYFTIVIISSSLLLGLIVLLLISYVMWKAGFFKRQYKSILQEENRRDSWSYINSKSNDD
T1 sequence (P26010 20-798): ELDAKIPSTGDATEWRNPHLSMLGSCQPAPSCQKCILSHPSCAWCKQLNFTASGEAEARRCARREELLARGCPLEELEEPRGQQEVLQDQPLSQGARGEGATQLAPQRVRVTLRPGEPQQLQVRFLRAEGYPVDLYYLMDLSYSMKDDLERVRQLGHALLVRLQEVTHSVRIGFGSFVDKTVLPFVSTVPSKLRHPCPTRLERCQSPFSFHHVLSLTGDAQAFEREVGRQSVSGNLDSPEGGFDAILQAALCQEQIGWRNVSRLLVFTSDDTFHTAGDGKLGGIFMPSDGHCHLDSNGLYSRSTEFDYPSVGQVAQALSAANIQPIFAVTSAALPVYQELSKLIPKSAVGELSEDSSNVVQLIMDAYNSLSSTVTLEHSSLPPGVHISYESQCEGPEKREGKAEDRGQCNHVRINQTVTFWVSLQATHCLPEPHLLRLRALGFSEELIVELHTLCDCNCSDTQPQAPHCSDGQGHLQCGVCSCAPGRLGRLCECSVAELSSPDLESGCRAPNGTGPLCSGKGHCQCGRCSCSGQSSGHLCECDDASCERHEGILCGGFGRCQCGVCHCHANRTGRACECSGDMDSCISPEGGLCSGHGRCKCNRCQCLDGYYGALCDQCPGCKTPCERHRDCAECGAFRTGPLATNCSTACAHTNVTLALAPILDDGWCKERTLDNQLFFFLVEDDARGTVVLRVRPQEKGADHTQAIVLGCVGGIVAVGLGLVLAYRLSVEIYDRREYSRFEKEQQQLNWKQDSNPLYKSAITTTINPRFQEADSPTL
Briefly: α4β7 Integrin Cell Capture Assay. As to conditions: capture of α4β7 integrin expressing RPMI8866 cells on recombinant MadCAM-1 extracellular domain-coated plate; 0.5 mM MnCl2. The format is cell-based. In outline: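 RPMI8866 cells (0.5×10^6 cells/mL in DMEM + 0.5% FBS + 0.5 mM MnCl2) preincubated with compound 1 h at 37 °C, then allowed to adhere 30 min at 37 °C to plates coated with MAdCAM-1 extracellular domain (1.0 μg/mL). Bound cells fixed with 2% glutaraldehyde, Hoechst-stained, imaged and counted; EC50 from cell count versus concentration.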
In general, EC50 refers to the concentration that produces a half-maximal response. Regarding `Cc1nc(-c2ccc(C[C@H](NC(=O)c3c(F)cc(N4C[C@H]5C[C@H]5[C@@H]4C(F)(F)F)cc3F)C(=O)O)c3c2OCCC3)c(=O)n(C)c1C` [Example 138], the half-maximal effective concentration (EC50) is 0.964 nM.
Consider `Cc1nc(-c2ccc(C[C@H](NC(=O)c3c(F)cc(N4CCOC[C@@H]4C(F)(F)F)cc3F)C(=O)O)c3c2CN(C)C3)c(=O)n(C)c1C` [Example 205], for which the EC50 was 1.27 nM.
Consider `O=C(N[C@@H](Cc1ccc(-c2c(Cl)cc(F)cc2Cl)c2c1OCCCO2)C(=O)O)c1c(F)cccc1F` [Example 96, (S)-3-(9-(2,6-dichloro-4-fluorophenyl)-3,4-dihydro-2H-benzo[b][1,4]dioxepin-6-yl)-2-(2,6-difluorobenzamido)propanoic acid], for which the concentration for a half-maximal effect (EC50) came out at 42.3 nM.
To `O=C(N[C@@H](Cc1ccc(-c2c(Cl)cc(F)cc2Cl)c2c1OCCO2)C(=O)O)c1c(F)cccc1OC(F)F` [Example 6, (S)-3-(8-(2,6-dichloro-4-fluorophenyl)-2,3-dihydrobenzo[b][1,4]dioxin-5-yl)-2-(2-(difluoromethoxy)-6-fluorobenzamido)propanoic acid] belongs 444 nM; to `Cc1nc(C)n(C)c(=O)c1-c1ccc(C[C@H](NC(=O)c2c(F)cc(N3CCOC[C@@H]3C(F)(F)F)cc2F)C(=O)O)c2c1OCCC2` (atropisomer, axis not shown) [Example 118], 0.142 nM.
The same measure for `Cc1cc(N2CCOC[C@@H]2C(F)(F)F)cc(F)c1C(=O)N[C@@H](Cc1ccc(-c2cc3cnccc3n(C)c2=O)c2c1COC2)C(=O)O` [Example 189]: 0.242 nM; for `Cc1cc(C)n(C)c(=O)c1-c1ccc(C[C@H](NC(=O)c2c(F)cc(N3CCOC[C@@H]3C(F)(F)F)cc2F)C(=O)O)c2c1COC2` [Example 27, (S)-2-(2,6-difluoro-4-((R)-3-(trifluoromethyl)morpholino)benzamido)-3-(7-(1,4,6-trimethyl-2-oxo-1,2-dihydropyridin-3-yl)-1,3-dihydroisobenzofuran-4-yl)propanoic acid]: 0.822 nM; for `Cc1nc(-c2ccc(C[C@H](NC(=O)c3c(F)cccc3F)C(=O)O)c3c2OCCO3)c(C(F)(F)F)c2ccccc12` [Example 2, (S)-2-(2,6-difluorobenzamido)-3-(8-(1-methyl-4-(trifluoromethyl)isoquinolin-3-yl)-2,3-dihydrobenzo[b][1,4]dioxin-5-yl)propanoic acid]: 3.76 nM.
Regarding `CC[C@@H](Nc1cc(F)c(C(=O)N[C@@H](Cc2ccc(-c3c(C)cc(C)n(C)c3=O)c3c2COC3)C(=O)O)c(F)c1)C(F)(F)F` [Example 22, (S)-2-(2,6-difluoro-4-(((R)-1,1,1-trifluorobutan-2-yl)amino)benzamido)-3-(7-(1,4,6-trimethyl-2-oxo-1,2-dihydropyridin-3-yl)-1,3-dihydroisobenzofuran-4-yl)propanoic acid], the EC50 is 1.35 nM.
To `Cc1c(-c2ccc(C[C@H](NC(=O)c3c(F)cccc3F)C(=O)O)c3c2CCOC3)c(=O)n(C)c2ccc(F)cc12` (single isomer, unassigned) [Example 37] belongs 1.6 nM.
As for `COc1cccc(OC)c1-c1ccc(CC(NC(=O)c2c(F)cc(NS(=O)(=O)c3ccc(-n4cncn4)cc3)cc2F)C(=O)O)c2c1CN(C(C)=O)CC2` (stereo not shown) [Example 107], the EC50 came to 0.812 nM.
For the compound `CC[C@@H](Nc1cc(F)c(C(=O)N[C@@H](Cc2ccc(-c3nc(C)c(C)n(C)c3=O)c3c2CCCO3)C(=O)O)c(F)c1F)C(F)(F)F` [Example 122], the half-maximal effective concentration (EC50) was determined as 0.271 nM.
The same measure for `Cc1nc(-c2ccc(C[C@H](NC(=O)c3c(F)cc(N4CCOC[C@@H]4C(F)(F)F)cc3F)C(=O)O)c3c2C[C@@H](O)C3)c(=O)n(C)c1C` [Example 192]: 0.228 nM; for `Cn1ncc(C(F)(F)F)c(-c2ccc(C[C@H](NC(=O)c3c(F)cc(N4CCOC[C@@H]4C(F)(F)F)cc3F)C(=O)O)c3c2OCCC3)c1=O` [Example 132]: 0.193 nM; for `Cn1cc(-c2ccc(C[C@H](NC(=O)c3c(F)cc(N[C@H](c4ccccc4)C(F)(F)F)cc3F)C(=O)O)c3c2OCCC3)c(=O)n(C)c1=O` [Example 85, (S)-2-(2,6-difluoro-4-(((R)-2,2,2-trifluoro-1-phenylethyl)amino)benzamido)-3-(8-(1,3-dimethyl-2,4-dioxo-1,2,3,4-tetrahydropyrimidin-5-yl)chroman-5-yl) propanoic acid]: 0.53 nM.
Consider `Cn1c(=O)c(-c2ccc(C[C@H](NC(=O)c3c(F)cccc3F)C(=O)O)c3c2OCCO3)cc2ccccc21` [Example 1, (S)-2-(2,6-difluorobenzamido)-3-(8-(1-methyl-2-oxo-1,2-dihydroquinolin-3-yl)-2,3-dihydrobenzo[b][1,4]dioxin-5-yl)propanoic acid], for which the EC50 came out at 11 nM.
`O=C(N[C@@H](Cc1ccc(-c2c(Cl)cc(F)cc2Cl)c2c1C1CC1CO2)C(=O)O)c1c(Cl)cccc1Cl` (stereo partly drawn) [Example 80, (2S)-3-(4-(2,6-dichloro-4-fluorophenyl)-1,1a,2,7b-tetrahydrocyclopropa[c]chromen-7-yl)-2-(2,6-dichlorobenzamido)propanoic acid]: the concentration giving a half-maximal response (EC50) was found to be 67.7 nM.
For `Cc1nc(C)n(C)c(=O)c1-c1ccc(C[C@H](NC(=O)c2c(F)cc(N3CCOC[C@@H]3C(F)(F)F)cc2F)C(=O)O)c2c1COC2` [Example 185], the EC50 worked out at 0.282 nM.
To `Cc1c(-c2ccc(C[C@H](NC(=O)c3c(F)cc(N4CCOC[C@@H]4C(F)(F)F)cc3F)C(=O)O)c3c2OCCO3)c(=O)n(C)c(=O)n1C` (single isomer, unassigned) [Example 8] belongs 0.301 nM.
Regarding `CCc1nc(-c2ccc(C[C@H](NC(=O)c3c(C)cc(N4CCOC[C@@H]4C(F)(F)F)cc3F)C(=O)O)c3c2OCCC3)c(=O)n(C)c1CC` [Example 169], the half-maximal effective concentration (EC50) amounted to 0.356 nM.
The same measure for `C[C@@H](Nc1cc(F)c(C(=O)N[C@@H](Cc2ccc(-c3c(Cl)cc(C#N)cc3Cl)c3c2CCCO3)C(=O)O)c(F)c1)C(F)(F)F` [Example 91, (S)-3-(8-(2,6-dichloro-4-cyanophenyl)chroman-5-yl)-2-(2,6-difluoro-4-(((R)-1,1,1-trifluoropropan-2-yl)amino)benzamido)propanoic acid]: 11 nM.
For `Cc1cc(N2CCOC[C@@H]2C(F)(F)F)cc(F)c1C(=O)N[C@@H](Cc1ccc(-c2cnc(C)n(C)c2=O)c2c1CCCO2)C(=O)O` [Example 128], the concentration for a half-maximal effect (EC50) was found to be 0.446 nM.
In the case of `O=C(N[C@@H](Cc1ccc(-c2cccc3c2OCCC3)c2c1CCCO2)C(=O)O)c1c(F)cccc1F` [Example 66, (S)-3-([8,8′-bichroman]-5-yl)-2-(2,6-difluorobenzamido)propanoic acid], the half-maximal effective concentration (EC50) was determined as 120 nM.
For the compound `Cc1cccc(F)c1C(=O)N[C@@H](Cc1ccc(-c2nc(C)c(C)n(C)c2=O)c2c1OCCO2)C(=O)O` [Example 181], the 50% effective concentration (EC50) worked out at 4.34 nM.
For `Cc1cc(N2CCOC[C@@H]2C(F)(F)F)cc(F)c1C(=O)N[C@@H](Cc1ccc(-c2c(C)c(C(F)(F)F)cn(C)c2=O)c2c1COC2)C(=O)O` [Example 187], the concentration giving a half-maximal response (EC50) amounted to 0.41 nM.
